For series [1], the system named is thrombus in arterio-venous shunt. Briefly: Rat arterio-venous shunt silk thread model. It is filed as in vivo, male Wistar rats. To be noted: rat AV shunt, perfusion 60 minutes. Here is the method:
The activity of the products was assessed in experimental animals in accordance with the European Community Standards on the Care and Use of Laboratory Animals and approved by the Animal Care and Use Committee of local authorities. Two experimental models to test antithrombotic activity in rats were used: Arterio-Venous Shunt and Ferric chloride arterial thrombosis model. Additionally, the effect of the products on the systemic blood pressure was investigated. Fasted male Wistar rats (300-320 g; Janvier, Le Genest St. Isle, France) were anesthetized with sodium pentobarbitone (60 mg/kg i.p.). An arterio-venous (AV) shunt was prepared according to the technique of Umetsu and Sanai (1978). Two 12 cm-long polyethylene tubes (0.85- and 1.27-mm i.d. and o.d., respectively) linked to a central part (6 cm-long; 1.14-mm i.d.) containing a 5-cm cotton thread and filled with […]) saline solution were placed between the right carotid artery and the left jugular vein. All products were given i.v through the jugular vein for 60 minutes. Shunt was placed 45 minutes after the initiation of the perfusion with the testing substances and removed at the end of the perfusion i.e. after 15 min of blood circulation. Cotton thread supporting the thrombus was extracted.

A short description of series [2]: Stability study: storage in closed borosilicate glass vial, HPLC analysis. The series is classed as physicochemical.
For the next series, the system named is systemic blood pressure. Kind of series: Effect of nitrosothiols on systemic blood pressure. Conditions: for Mean arterial pressure, Basal: before initiation of the treatment. It is filed as in vivo, male Wistar rats. As for the experimental part: Fasted male Wistar rats (300-320 g; Janvier, Le Genest St. Isle, France) were anesthetized with sodium pentobarbitone (60 mg/kg i.p.). The effect of treatments on systemic blood pressure was tested. Products dissolved in saline solution and were infused intravenously for 30 minutes at 0.5 ml/h. […] Basal blood pressure was measured before initiation of the treatment and was recorded throughout the treatment period using a pressure transducer connected to the carotid artery. The change in blood pressure was expressed as a % of change vs. basal values.

For the next series, the system named is arterial thrombosis. Kind of series: Rat arterial thrombosis model (ferric chloride, carotid artery). To be noted: i.v. infusion for 30 minutes. It is filed as in vivo, male Wistar rats. As for the experimental part:
The activity of the products was assessed in experimental animals in accordance with the European Community Standards on the Care and Use of Laboratory Animals and approved by the Animal Care and Use Committee of local authorities. Two experimental models to test antithrombotic activity in rats were used: Arterio-Venous Shunt and Ferric chloride arterial thrombosis model. Additionally, the effect of the products on the systemic blood pressure was investigated. Fasted male Wistar rats (300-320 g; Janvier, Le Genest St. Isle, France) were anesthetized with sodium pentobarbital (60 mg/kg i.p.) and thermoregulated by use of blankets (Biosis homeothermic blanket control unit; Biosis, Spain). A segment (approximately 1-cm long) of the left carotid artery was exposed and fitted at the distal end with an appropriately sized Doppler flow probe. Thrombosis was induced by applying a 70% ferric chloride solution embedded patch onto the artery. Blood flow velocity was measured using a Doppler flowmeter (Transonic Systems, San Diego, Calif.) and data recorded using a system for acquisition of data (Acqk). Blood flow was recorded for 60 min post-lesion. When the flow declined to zero, the time in minutes to thrombus formation was noted. The protocol followed was originally described by Feuerstein G Z, et al Artherioscler. Thromb. Vasc. Biol. 1999, 19: 2554-2562 and modified by Kurz K D, et al Thromb. Res. 1990, 60:269-280. The number of animals presenting no occlusion 30 min post-lesion were also noted. Products were dissolved in saline and were given as an i.v. infusion for 30 minutes. ED50 for each product was calculated and results are shown in Table 1 • Anti-thrombotic effect of compounds compared with reference compound in rat arterial thrombosis model after i.v. administration for 30 minutes.

The next series has as its system intraocular pressure. Briefly: Alfa-chymotrypsin-induced glaucoma, intraocular pressure. It is filed as in vivo. To be noted: glaucoma rabbits; for intraocular pressure, 0 hr / intraocular pressure, 1 hr / intraocular pressure, 2 hr: 3 drops instillation. Here is the method: The method used was that described by Gabriele Campana, Claudio Bucolo, Giovanna Murari and Santi Spampinato in Pharmacol. Exp Therap Vol. 303, Issue 3, 1086-1094, December 2002
Animals were injected with intra muscular injection of dexamethasone at the dose rate of 10 mg/Kg body weight, to avoid immediate inflammation. Animals were anesthetized with ketamine (50 mg/kg IV) in combination with Dizepam.
Xylocalne (4%) was used for local anesthesia topically. A cannula attached to reservoir was inserted into the anterior chamber with the help of a 30 gauge needle to provide a hydrostatic pressure of 25 mmHg during injection of alpha-chymotrypsin. Then a second appropriately shaped 30 gauge needle was introduced near the pupil. Freshly prepared 150 units of alpha chymotrypsin prepared in 0.1 ml of sterile saline was irrigated through the cannula into the posterior chamber. Care was taken to prevent the contact of alpha chymotrypsin with corneal stroma. Both cannulas were carefully removed without significant loss of aqueous humor. Immediately after surgery the eye treated with Sofracort (Corticosteroid) to reduce the chances of fungal or microbial infection.
All the animals were kept under observation for 5 days and after these five days the intraocular pressure (IOP) was measured daily with a Schiontz type indentation tonometer using 5.5 gm weights and by compilation of readings the maximum period required to achieve a stable increase in IOP was determined. […] IOP was measured after 15 days for 3 consecutive days, every morning (at same time) to assure stable IOP.
All the animals were closely observed for the development of glaucoma. Thirty animals showing the symptoms of glaucoma and with the intra ocular pressure more than 30 mmHg were selected for the present investigation.
Compound (R,S)-4-(Acetylamino-ethoxycarbonyl-methyl)-1-methyl-4-S-nitroso-mercapto-piperidinium chloride (example 1g) was administered to a group of rabbits at a concentration of 0.05% by weight [0.05 g in 100 mL of saline serum] by 3 drops instillation. For comparative data, the compound Timolol (Timoftol®) widely used for the treatment of glaucoma, was also administered to another group of rabbits at a concentration of 0.5% by weight.
The intraocular pressure measurements are included in the table 2 in mm Hg taken at 0, 1 and 2 h after 3 drops instillation.

The mark [3] stands for this setting: at 4° C., closed glass vial, no longer stable when it loses more than 5% of initial purity (HPLC).
The mark [4] stands for this setting: at 25° C., closed glass vial, no longer stable when it loses more than 5% of initial purity (HPLC).
Where [5] appears, read: anesthetized rat, i.v. infusion 30 min, dose 100 times the antithrombotic ED50.
Setting [6] is: change vs. basal after 30 min i.v. infusion, dose 100 times the antithrombotic ED50.

As to `CCOC(=O)C(NC(C)=O)C1(SN=O)CCN(C)CC1.Cl` (racemic) [Example 1g, (R,S)-4-(Acetylamino-ethoxycarbonyl-methyl)-1-methyl-4-S-nitrosomercapto-piperidinium chloride], the Antithrombotic protection in series [1] (dose 2.0 μg/kg i.v.) amounted to 54%. In series [2] (setting [3]), the “time the compound was stable” value is listed as “more than 10 months”. Moreover, the “time the compound was stable” value in series [2] (setting [4]) came out at 2.5 months. Further, the “Mean arterial pressure, Basal” value with systemic blood pressure (anesthetized rat) is on record as 115.7 ± 8.3 mm Hg. For the same compound, the “Mean arterial pressure, After 30 min infusion” value in the series with systemic blood pressure (setting [5]) is recorded as 113.6 ± 9.2 mm Hg. In addition, in the series with systemic blood pressure (setting [6]), the “Mean arterial pressure, Change” value is recorded as −1.8%. Moreover, the “ED50 (anti-thrombotic effect)” value with arterial thrombosis is 9.1 μg/kg, i.v. For the same compound, in the series with intraocular pressure (0.05% by weight in saline), the “intraocular pressure, 0 hr” value turned out to be 34.33 ± 0.68 mm Hg; the “intraocular pressure, 1 hr” value turned out to be 24.72 ± 0.47 mm Hg; the “intraocular pressure, 2 hr” value amounted to 23.86 ± 0.32 mm Hg. The “effect on intraocular pressure (in words)” value in the series with intraocular pressure (0.05%, 10-fold lower concentration than Timolol) is “significantly reduces the intraocular pressure”.
As to `CCOC(=O)[C@@H](NS(=O)(=O)c1ccccc1)C1(SN=O)CCN(C)CC1.Cl` (racemic) [Example 7 (hydrochloride salt), (R,S)-4-(Benzenesulfonylamino-ethoxycarbonyl-methyl)-1-methyl-4-S-nitrosomercapto-piperidinium chloride], in series [1] (dose 10.4 μg/kg i.v.), the Antithrombotic protection is 60%. Besides, the “time the compound was stable” value in series [2] (setting [3]) is more than 6 months; in series [2] (setting [4]), “at least 4 months”. For the same compound, the “Mean arterial pressure, Basal” value in the series with systemic blood pressure (anesthetized rat) is on record as 117.9 ± 10.2 mm Hg. Also, the “Mean arterial pressure, Change” value in the series on systemic blood pressure (rat, in vivo) was “+0.8%”. Further, the “Mean arterial pressure, After 30 min infusion” value in the series on systemic blood pressure (rat, in vivo, iv) was 118.8 ± 11.1 mm Hg. Also, in the series on arterial thrombosis, the “ED50 (anti-thrombotic effect)” value is given as 56.4 μg/kg, i.v.
The compound `N[C@@H](CCC(=O)N[C@@H](CSN=O)C(=O)NCC(=O)O)C(=O)O` [GSNO, S-nitrosoglutathione, reference compound] displayed an Antithrombotic protection in series [1] (dose 4.0 μg/kg i.v.) of 58%. Further, in series [2] (at 25° C., prior art S-nitrothiol compounds, loss of more than 5% of initial purity), the “time the compound was stable” value is given as 1 days. Further, in the series with systemic blood pressure (anesthetized rat), the “Mean arterial pressure, Basal” value amounted to 112.2 ± 6.2 mm Hg. For the same compound, in the series on systemic blood pressure (setting [5]), the “Mean arterial pressure, After 30 min infusion” value turned out to be 98.8 ± 4.1 mm Hg. Besides, the “Mean arterial pressure, Change” value with systemic blood pressure (setting [6]) is −12.0%. The “ED50 (anti-thrombotic effect)” value in the series on arterial thrombosis is on record as 18.1 μg/kg, i.v.
With `CC(C)(C)NC[C@H](O)COc1nsnc1N1CCOCC1` [Timolol, reference compound], in the series on intraocular pressure (0.5% by weight), the “intraocular pressure, 0 hr” value came to 34.45 ± 0.58 mm Hg; the “intraocular pressure, 1 hr” value was found to be 24.77 ± 0.26 mm Hg; the “intraocular pressure, 2 hr” value turned out to be 24.54 ± 0.26 mm Hg.
`CC(=O)NC(C(=O)O)C1(SN=O)CCN(C)CC1` (stereo not drawn) [example 2 of EP 1157987, N-acetyl-2-amino-2[4-(4-S-nitrosomercapto-1-methylpiperidin)]acetic acid, reference compound] returned an Antithrombotic protection in series [1] (dose 1.7 μg/kg i.v.) of 61%. In addition, the “Mean arterial pressure, After 30 min infusion” value with systemic blood pressure (setting [5]) stood at 95.1 ± 2.4 mm Hg. Moreover, the “ED50 (anti-thrombotic effect)” value in the series on arterial thrombosis is reported as 4.1 μg/kg, i.v.
